Entries after “also recorded” stand apart in the source; their conditions may differ. Where two headings read alike, the source gives them in different places.
Tests used:
[1] = tested on: HIV-1 Env-pseudoviruses (30-strain panel); assay: Neutralization assay, cross-clade 30-strain panel (Env-pseudoviruses, TZM-bl target cells); assay type: cell-based; settings: for IC50: Human immunodeficiency virus 1, TZM-bl; for number of viruses neutralized: of the 30 viruses
Protocol: Neutralization was measured using single-round-of-infection HIV-1 Env-pseudoviruses and TZM-bl target cells (ARP Cat No. #8129)[44],[45]. Compounds were prepared at 400 μM with 4% DMSO (dimethyl sulfoxide) in PBS (phosphate-buffered saline) and diluted 20 times as the starting concentration for serial dilution in the neutralization assays. […] After incubation at 37 °C for 2 days, infection of target cells was measured by luciferase activity. Neutralization curves were fit by nonlinear regression using a five-parameter hill slope equation[45].

TZM-bl cells [2] = assay: Cytotoxicity in the neutralization assay (TZM-bl cells + drugs); settings: highest concentration (20 μM)
HIV-1 strain NL4-3 = assay: Entry inhibition of laboratory-adapted HIV-1 strain NL4-3; assay type: cell-based
TZM-bl cells [3] = tested on: TZM-bl cells; design: method as in literature; settings: not measured here; ref literature; cited from earlier work
[4] = 242-14 (Clade AG), read-out: IC50
[5] = 247-23 (Clade D), read-out: IC50
[6] = 0330.v4.c3 (Clade A), read-out: IC50
[7] = 7165.18 (Clade B), read-out: IC50
[8] = BJOX028000.10.3 (Clade AE), read-out: IC50
[9] = BL01.DG (Clade B), read-out: IC50
[10] = C4118.09 (Clade AE), read-out: IC50
[11] = CAP210.E8 (Clade C), read-out: IC50
[12] = CH119.10 (Clade BC), read-out: IC50
[13] = CNE10 (Clade B), read-out: IC50
[14] = CNE20 (Clade BC), read-out: IC50
[15] = CNE56 (Clade AE), read-out: IC50
[16] = DJ263.8 (Clade AG), read-out: IC50
[17] = DU156.12 (Clade C), read-out: IC50
[18] = Geomean, 30-strain panel, read-out: Geometric mean IC50
[19] = KER2008.12 (Clade A), read-out: IC50
[20] = MB201.A1 (Clade A), read-out: IC50
[21] = NKU3006.ec1 (Clade D), read-out: IC50
[22] = P0402.c2.11 (Clade G), read-out: IC50
[23] = PVO.04 (Clade B), read-out: IC50
[24] = R3265.c6 (Clade AE), read-out: IC50
[25] = REJO.67 (Clade B), read-out: IC50
[26] = T253-11 (Clade AG), read-out: IC50
[27] = T280-5 (Clade AG), read-out: IC50
[28] = ZM106.9 (Clade C), read-out: IC50

| SMILES | IC50 [1, 4] | IC50 [1, 5] | IC50 [1, 6] | IC50 ([1]; 426c (Clade C), read-out: IC50) | IC50 [1, 7] | IC50 ([1]; B41 (Clade B), read-out: IC50) | IC50 [1, 8] | IC50 [1, 9] | IC50 [1, 10] | IC50 [1, 11] | IC50 [1, 12] | IC50 [1, 13] | IC50 [1, 14] | IC50 [1, 15] | IC50 [1, 16] | IC50 [1, 17] | IC50 [1, 18] | IC50 [1, 19] | IC50 [1, 20] | IC50 [1, 21] | further results |
| --- | --- | --- | --- | --- | --- | --- | --- | --- | --- | --- | --- | --- | --- | --- | --- | --- | --- | --- | --- | --- | --- |
| O=C(C(=O)N1CCN(C(=O)c2ccccc2)CC1)c1c[nH]c2c(F)ccc(Br)c12 [BMS-386150] | 7020 nM | > 20000 nM | > 20000 nM | 6620 nM | > 20000 nM | 117 nM | > 20000 nM | > 20000 nM | > 20000 nM | > 20000 nM | 13700 nM | 509 nM | > 20000 nM | > 20000 nM | > 20000 nM | 1350 nM | > 6720 nM | > 20000 nM | > 20000 nM | 256 nM | fold lower neutralization potency than BMS-378806 ([1]; 30-strain panel): ~ 7 fold; IC50 [1, 22]: > 20000 nM; IC50 [1, 23]: 664 nM; IC50 [1, 24]: > 20000 nM; IC50 [1, 25]: > 20000 nM; IC50 [1, 26]: 541 nM; IC50 [1, 27]: 2020 nM; IC50 [1, 28]: 10800 nM; IC50 ([1]; read-out: IC50): 4670 nM |
| COc1cnc(-c2csc(CN(C)CCCN(C)C)n2)c2[nH]cc(C(=O)C(=O)N3CCC(=C(C#N)c4ccccc4)CC3)c12 [BMS-814508] | 15 nM | 16 nM | 96 nM | 36 nM | 491 nM | 1 nM | > 4000 nM | 2810 nM | 2000 nM | 400 nM | 4 nM | 4 nM | 143 nM | > 4000 nM | < 0.3 nM | 20 nM | > 51 nM | 165 nM | 192 nM | 1 nM | Cytotoxicity (TZM-bl cells [2]): showed cytotoxicity; also recorded: Cytotoxicity was observed; IC50 [1, 22]: 12 nM; IC50 [1, 23]: 2 nM; IC50 [1, 24]: 1060 nM; IC50 [1, 25]: 2730 nM; IC50 [1, 26]: < 0.3 nM; IC50 [1, 27]: 0.8 nM; IC50 [1, 28]: 31 nM; IC50 ([1]; read-out: IC50): 8 nM; number of viruses neutralized [1]: 28; EC50 (HIV-1 strain NL4-3; Human immunodeficiency virus 1, NL43, NL4-3): 0.495 ± 0.069 nM; fold more potent than BMS-626529 (HIV-1 strain NL4-3; NL4-3 EC50): 4 fold |
| COc1ccnc2[nH]cc(C(=O)C(=O)N3CCN(C(=O)c4ccccc4)C[C@H]3C)c12 [BMS-378806, 4-benzoyl-1-[(4-methoxy-1H-pyrrolo[2,3-b]pyridin-3-yl)oxoacetyl]-2-(R)-methylpiperazine, reference compound] | – | – | – | – | – | – | – | – | – | – | – | – | – | – | – | – | – | – | – | – | IC50 ([1]; read-out: Geometric mean IC50): > 912 nM; Cytotoxicity (TZM-bl cells [3]): lack of cytotoxicity |
| O=C(c1ccsc1)N1CCN(C(=O)C2(c3cccc(Cl)c3)CC2)CC1 [Compound 484, reference compound] | > 20000 nM | > 20000 nM | > 20000 nM | 13400 nM | > 20000 nM | 1730 nM | > 20000 nM | > 20000 nM | > 20000 nM | > 20000 nM | > 20000 nM | 1940 nM | > 20000 nM | > 20000 nM | 2780 nM | 7690 nM | > 12300 nM | > 20000 nM | > 20000 nM | 1650 nM | IC50 [1, 22]: > 20000 nM; IC50 [1, 23]: 7870 nM; IC50 [1, 24]: > 20000 nM; IC50 [1, 25]: > 20000 nM; IC50 [1, 26]: 3350 nM; IC50 [1, 27]: 11900 nM; IC50 [1, 28]: > 20000 nM; IC50 ([1]; […], read-out: IC50): 13600 nM; IC50 ([1]; read-out: IC50): > 20000 nM; number of viruses neutralized [1]: 11 |

Source: publication PMC6318274, “Lattice engineering enables definition of molecular features allowing for potent small-molecule inhibition of HIV-1 entry” (Nature Communications, 2019)
